What was measured:
Type in all cases: functional, cell-based
MOLT-4 = test: Cytostatic activity against human Molt4/C8 cells
L1210 = test: Cytostatic activity against mouse L1210 cells
CCRF-CEM = test: Cytostatic activity against human CEM cells

Compound	IC50 (MOLT-4)	IC50 (L1210)	IC50 (CCRF-CEM)
CC(O)c1cn([C@@H]2O[C@H](CO)[C@@H](O)[C@H]2O)nn1 (some centres undefined)	> 200 µM	> 200 µM	> 200 µM
OC[C@H]1O[C@@H](n2cc(-c3ccccn3)nn2)[C@H](O)[C@@H]1O	170 µM	236 µM	245 µM
CCCCCCc1cn([C@@H]2O[C@H](CO)[C@@H](O)[C@H]2O)nn1	> 200 µM	> 200 µM	> 200 µM
OCc1cn([C@@H]2O[C@H](CO)[C@@H](O)[C@H]2O)nn1	> 200 µM	> 200 µM	> 200 µM
OC[C@H]1O[C@@H](n2cc(-c3ccc(F)cc3)nn2)[C@H](O)[C@@H]1O	171 µM	209 µM	217 µM

Now those with a lower IC50 (MOLT-4), led by results:

IC50 (MOLT-4)	IC50 (L1210)	IC50 (CCRF-CEM)	Compound
36 µM	152 µM	73 µM	COc1ccc(-c2cn([C@@H]3O[C@H](CO)[C@@H](O)[C@H]3O)nn2)cc1
126 µM	182 µM	139 µM	OC[C@H]1O[C@@H](n2cc(-c3ccsc3)nn2)[C@H](O)[C@@H]1O
50 µM	56 µM	44 µM	CCCCCCCCc1cn([C@@H]2O[C@H](CO)[C@@H](O)[C@H]2O)nn1
